Measurements published in article PMC3749181, “Rapid Identification of Antifungal Compounds against Exserohilum rostratum Using High Throughput Drug Repurposing Screens” (PLoS ONE, 2013).
Where two headings read alike, the source gives them in different places.

How the values were obtained:
[1] = test system: E. rostratum hyphal fragments; test: hyphal fragment fungicidal ATP content assay (PBS, 1536-well); assay type: cell-based, Exserohilum rostratum; conditions: for Emax / Hyphae % M. Res. / Hyphae % Max. Resp.: 46 µM Amphotericin B = 100%; for IC50: read-out: Hyphae IC50
Description: (§1) Conidia and hyphae of E. rostratum were obtained as described by Richard et al., with the following modifications. Briefly, conidia were harvested from Potato Dextrose Agar (PDA) cultured media with 0.05% Tween 80, and the conidial suspension was filtered using a Cell Strainer (100 µm, BD Falcon REF 352340). After centrifugation at 700g for 10 min, the suspension was decanted and conidia were resuspended at 1×10^5 per ml in RPMI and counted in a hemocytometer. Hyphae were harvested from yeast extract peptone dextrose (YPD) culture media with 0.05% Tween 80. Hyphal fragments were sized by vortexing 15 sec twice with 0.4 mm glassbeads, and the hyphae suspension was filtered by cheese cloth twice. […] To normalize concentrations of hyphal fragments for batch to batch consistency, carbohydrate analysis was performed by a phenol-sulfuric acid method as previously described. The final stock concentration of hyphae was adjusted to 1.0 (OD490) per 100 µl.
(§2) The ATPLite assay kit, consisting of luciferase/luciferin and detergent, was used to quantitate cellular ATP levels as a marker for cell viability (Table 1). For assay development, hyphal fragments or conidia in PBS were plated in a seeding density of 3,750, 7,500 and 15,000 cellular particles/well with a final volume of 5 µl/well using the Multidrop-Combi dispenser in white 1536-well plates. Conidia or hyphae fragments were incubated for 24 h at 37°C in a 5% CO2 humidified atmosphere. ATPLite detection reagents were added at 4 µl/well. The assay plates were incubated at room temperature for 15 minutes before reading luminescence intensity on a ViewLux plate reader (Perkin Elmer, Waltham, MA). Conidia suspended in RPMI medium were inoculated at concentrations of 62.5, 125 and 250 conidia/well with a final volume of 5 µl/well in white 1536-well plates. The conidia assay was developed and optimized in the same way as the hyphal assay.
(§3) The LOPAC library (Sigma-Aldrich) has been extensively used for HTS assay validations, [18]. The NIH Chemical Genomics Center Pharmaceutical (NPC) collection was constructed in-house through a combined effort of compound purchasing and custom synthesis and recently expanded to 4096 compounds. […] 2.5 µl/well PBS was dispensed into 1536-well plates using a Multidrop-Combi dispenser. Compound in DMSO solution was transferred in a volume of 23 nl/well using a NX-TR pintool station (WAKO Scientific Solutions, San Diego, CA). This additional PBS step for compound addition was designed to prevent the potential fungal contamination of compound libraries. The hyphal fragments in PBS were then added at 2.5 µl/well for a final seeding density of 15,000 hyphal fragments/well using the Multidrop-Combi dispenser. The final compound concentration was 46 µM in the primary screen. The assay plates were incubated for 24 h at 30°C before the detection of cellular viability with the ATP content assay. Screen of conidia was performed in a similar way except that PBS was replaced with RPMI medium and conidia were plated for a final seeding density of 250 conidia/well.
(§4) The primary screen data and curve fitting were analyzed using software developed internally at the NIH Chemical Genomics Center (NCGC). Total signals for cellular viability (100% cellular viability) were calculated from the wells with DMSO solvent and the complete cell killing (0% cellular viability) was calculated from 46 µM amphotericin B treated wells. […] All values were expressed as the mean +/− SD (n≥3).

SH-SY5Y cells = test: SH-SY5Y cytotoxicity counter-screen (ATP content assay); assay type: cell-based, Human; conditions: for SH-SY5Y % Max. Resp.: Table 2, SH-SY5Y, inact. = no significant activity at 46 µM; for SH-SY5Y % M. Res. / SH-SY5Y IC50: Table S1; for SH-SY5Y % M. Res.: Inact. = no significant activity at 46 µM; for SH-SY5Y IC50: Inact. = no significant activity at the highest compound concentration (46 µM)
Description: Human neuroblastoma SH-SY5Y cell line (Catalog No. CRL-2266) was purchased from ATCC (Manassas, VA). SH-SY5Y cell line was cultured in 175-cm^2 tissue culture flasks (Costar, Cambridge, MA) with 30 ml of growth medium at 37°C in a 5% CO2 humidified atmosphere. Growth medium was made with Dulbecco's Modified Eagle Medium: Nutrient Mixture F-12 with 10% fetal bovine serum (FBS). Growth medium was replaced every other day and cells were passed at 75% confluence.
as §2
Two small known compound libraries including the LOPAC (1280 compounds) and approved drugs (4096 compounds) were screened in parallel using the above optimized assays for hyphae and conidia in 1536-well plates (Fig. 4). […] A mammalian SH-SY5Y cell line was used in parallel as a counter-screen with the same ATP content assay kit to assess the specificity of these compounds for E. rostratum.

E. rostratum conidia = test: conidia growth inhibition ATP content assay (RPMI, 1536-well); assay type: cell-based, Exserohilum rostratum; conditions: for IC50: 24 h, inact. = no significant activity at the highest compound concentration (46 µM), read-out: Conidia IC50; for Emax / Conidia % M. Res. / Conidia % Max. Resp.: 46 µM Amphotericin B = 100%; for Conidia IC50: Inact. = no significant activity at the highest compound concentration (46 µM)
Description: as §1, §2, §3, §4

[2] = test system: E. rostratum hyphal fragments; test: colony formation assay of hyphal fragments; assay type: cell-based, Exserohilum rostratum; conditions: 2 times respective IC50, 37°C, 24 h; p<0.01
Description: 10 µl of hyphal suspension (processed as described above) was transferred to 1.7 mL microfuge tubes, each containing 28 nM amphotericin B, 242 nM posaconazole, or 10% DMSO in 1 ml PBS. Tubes containing hyphae and drug were incubated at 37°C in a shaking incubator for 24 h, then 200 µl of the hyphae drug suspension was spread on Yeast Extract Peptone Dextrose (YPD) plates for 24 h at 30°C and the number of colony forming units were scored. The experiments were performed in triplicate.
Mixtures were cultured at 37°C in a shaking incubator for 24 h, then the hyphal suspensions were inoculated on Yeast Extract Peptone Dextrose (YPD) plates that were incubated for 1 day. The number of colonies on each YPD plate was counted.

[3] = Exserohilum rostratum, Table 2, inact. = no significant activity in the primary screen, read-out: Hyphae % Max. Resp.
[4] = Exserohilum rostratum, Table 2, 24 h, inact. = no significant activity in the primary screen
[5] = Exserohilum rostratum, Table S1, Inact. = no significant activity in the primary screen, read-out: Hyphae % M. Res.
[6] = Exserohilum rostratum, Table 2, inact. = no significant activity at 46 µM, read-out: Conidia % Max. Resp.
[7] = Exserohilum rostratum, Table S1, Inact. = no significant activity at 46 µM, read-out: Conidia % M. Res.
[8] = Table S1, Inact. = no significant activity in the primary screen
[9] = Table S1, Inact. = no significant activity at 46 µM
[10] = Table 2, inact. = no significant activity in the primary screen
[11] = Table 2, 24 h, inact. = no significant activity in the primary screen
[12] = Table 2, inact. = no significant activity at 46 µM

Compound	Emax [1, 3]	IC50 [1, 4]	Emax [1, 5]	SH-SY5Y % Max. Resp. (SH-SY5Y cells; 46 µM Amphotericin B = 100%)	SH-SY5Y % Max. Resp. (SH-SY5Y cells)	SH-SY5Y % M. Res. (SH-SY5Y cells; 46 µM Amphotericin B = 100%)	SH-SY5Y IC50 (SH-SY5Y cells)	IC50 (E. rostratum conidia; Exserohilum rostratum, Table 2)	Emax (E. rostratum conidia; [6])	Hyphae % M. Res. [1, 8]	Hyphae IC50 [1, 8]	Conidia % M. Res. (E. rostratum conidia; [9])	Conidia IC50 (E. rostratum conidia; Table S1)	other results
N#C/C(=C1/SC[C@@H](c2ccc(Cl)cc2Cl)S1)n1ccnc1 [Luliconazole]	82%	6.4 µM	82%	inact.	inact.	Inact.	Inact.	4.39 µM	100%					Emax (E. rostratum conidia; [7]): 100%; hyphae-derived colony forming units (CFU) compared to DMSO control [2]: significantly reduced
OC(Cn1cncn1)(Cn1cncn1)c1ccc(F)cc1F [Fluconazole]						Inact.	Inact.			Inact.	Inact.	Inact.	Inact.	activity in the hyphae assay ([1]; concentrations up to 46 µM): no activity; activity in the conidia assay (E. rostratum conidia; concentrations up to 46 µM): no activity
CN(C/C=C/C#CC(C)(C)C)Cc1cccc2ccccc12 [Terbinafine]			64%			Inact.	Inact.					Inact.	Inact.	IC50 ([1]; Exserohilum rostratum, Table S1, Inact. = no significant activity in the primary screen): 34 µM
COC1=CC(=O)C[C@@H](C)[C@]12Oc1c(Cl)c(OC)cc(OC)c1C2=O [Griseofulvin]						Inact.	Inact.			Inact.	Inact.	Inact.	Inact.	
O=P(O)(O)OC(Cn1cncn1)(Cn1cncn1)c1ccc(F)cc1F [Fosfluconazole]						Inact.	Inact.			Inact.	Inact.	Inact.	Inact.	
Clc1ccc(COC(Cn2ccnc2)c2ccc(Cl)cc2Cl)cc1 (stereo not drawn) [Econazole nitrate]			77%			Inact.								Emax (E. rostratum conidia; [7]): 64%
O=C(Nc1ccc(Br)cc1)c1cc(Br)cc(Br)c1O [Tribromosalan]				inact.	inact.									Hyphae % Max. Resp. [1, 10]: inact.; Hyphae IC50 [1, 11]: inact.; Conidia % Max. Resp. (E. rostratum conidia; [12]): 99%; IC50 (E. rostratum conidia; Table 2): 1.93 µM
CC(C)N1CCN(c2ccc(OCC3COC(Cn4cncn4)(c4ccc(Cl)cc4Cl)O3)cc2)CC1 (stereo not drawn) [Terconazole]	100%	6.12 µM	100%	inact.	inact.	Inact.	Inact.	9.06 µM	101%					Emax (E. rostratum conidia; [7]): 101%
CO/C=C(/C(=O)OC)c1ccccc1Oc1cc(Oc2ccccc2C#N)ncn1 [Azoxystrobin]				inact.	inact.									Hyphae % Max. Resp. [1, 10]: 81%; IC50 [1, 11]: 0.198 µM; Conidia % Max. Resp. (E. rostratum conidia; [12]): 83%; IC50 (E. rostratum conidia; Table 2): 0.304 µM
CCC(C)(C)c1ccc(CC(C)CN2C[C@@H](C)O[C@@H](C)C2)cc1 (stereo partly drawn) [Amorolfine]	81%	4.51 µM		inact.	inact.			7.86 µM	102%					
CCCCCCC(=O)CCCCCC/C=C/C[C@@H](O)[C@H](O)[C@@](N)(CO)C(=O)O [Myriocin]	81%	2.75 µM		inact.	inact.			13.6 µM	92%					
CC(C)(C)c1cc(/C=C(\C#N)C(N)=S)cc(C(C)(C)C)c1O [Tyrphostin AG 879]				inact.	inact.			6.16 µM	92%					Hyphae % Max. Resp. [1, 10]: inact.; Hyphae IC50 [1, 11]: inact.
Cc1ccc(/C=N/n2c(-c3ccccc3)csc2=S)cc1 [Fezatione]						Inact.	Inact.			Inact.	Inact.	Inact.	Inact.	
CC(=O)N1CCN(c2ccc(OCC3COC(Cn4ccnc4)(c4ccc(Cl)cc4Cl)O3)cc2)CC1 (stereo not drawn) [Ketoconazole]	74%	2.38 µM	74%	inact.	inact.	Inact.	Inact.	3.47 µM	101%					Emax (E. rostratum conidia; [7]): 101%
Cc1cc(O)c2c(c1)O[C@@]1(C)CC[C@H]3C(C)(C)CCC[C@]34CO[C@@H]2[C@H]41 [Siccanin]						Inact.	Inact.			Inact.	Inact.	Inact.	Inact.	
O=[N+]([O-])c1c(Cl)cccc1-c1c[nH]cc1Cl [Pyrrolnitrin]	80%	5.59 µM		inact.	inact.			0.409 µM	101%					
